Data on 19 compounds can be found in patent publication US11254663B2 (BRISTOL-MYERS SQUIBB COMPANY, priority 2019, dated 2022).

pEC50: −log10 of the molar value.

Sequence of FXR (Q96RI1 262-486): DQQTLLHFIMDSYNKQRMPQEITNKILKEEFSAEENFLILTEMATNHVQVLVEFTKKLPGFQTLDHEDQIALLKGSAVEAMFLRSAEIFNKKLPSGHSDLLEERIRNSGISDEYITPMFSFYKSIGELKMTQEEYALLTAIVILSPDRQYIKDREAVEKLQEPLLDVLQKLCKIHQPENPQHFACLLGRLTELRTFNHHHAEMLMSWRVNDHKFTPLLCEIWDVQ

One assay concerns the target FXR (Homo sapiens (Human), UniProt Q96RI1). Nature of the assay: transient human FXR/Gal4-luciferase reporter assay.
Settings: not given
The format is cell-based. As to the method:
A Gal4-hFXR fusion construct reporter system was used as the primary assay to characterize compound activity. A construct including 5 copies of the Gal4 promoter response element upstream of a firefly luciferase reporter cDNA was stably expressed in HEK293 cells. This reporter cell line was maintained in Dulbecco's Modified Eagle's medium (DMEM; Gibco) supplemented with 1% penicillin-streptomycin (P/S) solution, 500 μg/mL Zeocin and 10% charcoal/dextran-treated fetal bovine serum (cs-FBS) at 37° C. in a humidified 5% CO2 atmosphere. Another plasmid was constructed in which the human cytomegalovirus promoter in the pcDNA3.1 vector directs the expression of the cDNA encoding a fusion protein comprised of the DNA binding domain from the Gal4 transcription factor fused to the ligand binding domain from human FXR.
The day prior to transfection, the reporter cells in culture are detached from the plate with trypsin and plated into a T75 flask at a sufficient density to achieve approximately 90% confluence the next morning. The transfection reagents are prepared by separately diluting 25 μg of the pcDNA3.1-Gal4-FXR plasmid into 1.87 mL of Opti-MEM (Thermo-Fisher), and 40 μL of Lipofectamine 2000 (Thermo-Fisher) into 1.87 mL of Opti-MEM, and then adding the diluted DNA solution into the diluted Lipofectamine 2000 solution and incubating at room temperature for 15-20 minutes. The mixture is further diluted with 10 mL of a solution comprised of DMEM, 10% cs-FBS, and 1% P/S immediately prior to transferring to the cells. The maintenance culture media is aspirated from the cells and the final transfection mixture is added before the cells are incubated overnight at 37° C. in a humidified 5% CO2 atmosphere. This protocol can be scaled up, and the transiently transfected cells can be cryopreserved in an assay-ready format.
For compound testing, 100 nL of the compounds (serial dilutions in DMSO) are dispensed with an Echo acoustic dispenser (Labcyte) into the wells of a Corning/Costar clear bottom 384-well white plate. The transfected cells are harvested, counted, and diluted such that 10-25,000 cells in 25 μL are plated into each well of the 384-well compound assay plate. The compound-treated cells are incubated overnight at 37° C. in a humidified 5% CO2 atmosphere. The next morning 25 μL of Steady-Glo (Promega) are added to each well of the plate, the mixture is incubated for 15 min. with shaking, and luminescence is measured on an Envision (Perkin Elmer) plate reader.
For orientation: pEC50 means −log10 of the EC50, conventionally taken in molar units. Compound `CCOc1ccc(-c2cncc(N(CC34CCC(c5nc(C(C)(C)C)no5)(CC3)CC4)C(=O)C34CC(F)(C3)C4)c2)cn1` [Example 477, N-((4-(3-(tert-butyl)-1,2,4-oxadiazol-5-yl)bicyclo[2.2.2]octan-1-yl)methyl)-N-(6′-ethoxy-[3,3′-bipyridin]-5-yl)-3-fluorobicyclo[1.1.1]pentane-1-carboxamide] gave a pEC50 of 6.31.
On the same count and under the same terms, the value for `CCOc1ncc(-c2cccc(N(CC34CCC(c5noc(C6(C)COC6)n5)(CC3)CC4)C(=O)[C@H]3C[C@@](C)(O)C3)c2)cn1` [Example 519, (1S,3S)—N-(3-(2-ethoxypyrimidin-5-yl)phenyl)-3-hydroxy-3-methyl-N-((4-(5-(3-methyloxetan-3-yl)-1,2,4-oxadiazol-3-yl)bicyclo[2.2.2]octan-1-yl)methyl)cyclobutane-1-carboxamide] was 6.30.
Still for that read-out and setting: under `CS(=O)(=O)Nc1ccc(-c2cccc(N(CC34CCC(c5ccc(C(F)(F)F)cn5)(CC3)CC4)C(=O)C34CC(F)(C3)C4)c2)cc1` [Example 488, 3-fluoro-N-(4′-(methylsulfonamido)-[1,1′-biphenyl]-3-yl)-N-((4-(5-(trifluoromethyl)pyridin-2-yl)bicyclo[2.2.2]octan-1-yl)methyl)bicyclo[1.1.1]pentane-1-carboxamide] stands 6.06.
With `CCc1cnc(-c2cccc(N(CC34CCC(c5ccc(C(F)(F)F)cn5)(CC3)CC4)C(=O)C34CC(F)(C3)C4)c2)nc1` [Example 496, N-(3-(5-ethylpyrimidin-2-yl)phenyl)-3-fluoro-N-((4-(5-(trifluoromethyl)pyridin-2-yl)bicyclo[2.2.2]octan-1-yl)methyl)bicyclo[1.1.1]pentane-1-carboxamide], the pEC50 is 6.27.

The same assay, now with this note: Gal4-hFXR fusion construct, HEK293 reporter cells; response relative to 8 μM GW-4064.
`Cn1nc(C23CCC(CN(C(=O)C45CC(F)(C4)C5)c4cccc(-c5ccc6[nH]c(=O)oc6c5)c4)(CC2)CC3)cc1C1CC1` [Example 411, N-((4-(5-cyclopropyl-1-methyl-1H-pyrazol-3-yl)bicyclo[2.2.2]octan-1-yl)methyl)-3-fluoro-N-(3-(2-oxo-2,3-dihydrobenzo[d]oxazol-6-yl)phenyl)bicyclo[1.1.1]pentane-1-carboxamide] gave a pEC50 of 6.84.
Same read-out and setting: under `CC(C)Oc1ccc(-c2cccc(N(CC34CCC(c5cc(C(C)(F)F)n(C)n5)(CC3)CC4)C(=O)OC(C)(C)C(F)(F)F)c2)cc1` [Example 658, 1,1,1-trifluoro-2-methylpropan-2-yl ((4-(5-(1,1-difluoroethyl)-1-methyl-1H-pyrazol-3-yl)bicyclo[2.2.2]octan-1-yl)methyl)(4′-isopropoxy-[1,1′-biphenyl]-3-yl)carbamate] stands 6.04.
`Cc1nc2ccc(-c3cccc(N(CC45CCC(c6ccc(C(=O)N(C)C)cc6)(CC4)OC5)C(=O)C45CC(F)(C4)C5)c3)cc2s1` [Example 569, N-((1-(4-(dimethylcarbamoyl)phenyl)-2-oxabicyclo[2.2.2]octan-4-yl)methyl)-3-fluoro-N-(3-(2-methylbenzo[d]thiazol-6-yl)phenyl)bicyclo[1.1.1]pentane-1-carboxamide] showed a pEC50 of 5.65. Compared with the last compound, the pEC50 is 0.39 log units lower.
The same measure, in the same setting: the value for `CC(C)(F)c1nc(C23CCC(CN(C(=O)OC(C)(C)C(F)(F)F)c4cc(-c5cnn(CC6COC6)c5)c(F)cn4)(CC2)CC3)no1` [Example 621, 1,1,1-trifluoro-2-methylpropan-2-yl(5-fluoro-4-(1-(oxetan-3-ylmethyl)-1H-pyrazol-4-yl)pyridin-2-yl)((4-(5-(2-fluoropropan-2-yl)-1,2,4-oxadiazol-3-yl)bicyclo[2.2.2]octan-1-yl)methyl)carbamate] was 7.08; that for `CCOc1ccc(-c2cncc(N(CC34CCC(c5nc(C6CC6)no5)(CC3)CC4)C(=O)C34CC(F)(C3)C4)c2)cn1` [Example 426, N-((4-(3-cyclopropyl-1,2,4-oxadiazol-5-yl)bicyclo[2.2.2]octan-1-yl)methyl)-N-(6′-ethoxy-[3,3′-bipyridin]-5-yl)-3-fluorobicyclo[1.1.1]pentane-1-carboxamide] was 6.38; that for `CC(C)(O)c1ccc(-c2ccnc(N(CC34CCC(c5noc(C(C)(F)F)n5)(CC3)CC4)C(=O)OC(C)(C)C(F)(F)F)c2)cc1` [Example 609, 1,1,1-trifluoro-2-methylpropan-2-yl((4-(5-(1,1-difluoroethyl)-1,2,4-oxadiazol-3-yl)bicyclo[2.2.2]octan-1-yl)methyl)(4-(4-(2-hydroxypropan-2-yl)phenyl)pyridin-2-yl)carbamate] was 7.52.
On the same count and under the same terms, the value for `Cc1nc2ccc(-c3cccc(N(CC45CCC(c6nc(C7CC7)no6)(CC4)CC5)C(=O)C45CC(F)(C4)C5)c3)cn2n1` [Example 324, N-((4-(3-cyclopropyl-1,2,4-oxadiazol-5-yl)bicyclo[2.2.2]octan-1-yl)methyl)-3-fluoro-N-(3-(2-methyl-[1,2,4]triazolo[1,5-a]pyridin-6-yl)phenyl)bicyclo[1.1.1]pentane-1-carboxamide] was 6.60; that for `CC(C)(O)c1ccc(-c2nccc(N(CC34CCC(c5noc(C(C)(C)F)n5)(CC3)CC4)C(=O)OC(C)(C)C(F)(F)F)n2)cc1` [Example 635, 1,1,1-trifluoro-2-methylpropan-2-yl ((4-(5-(2-fluoropropan-2-yl)-1,2,4-oxadiazol-3-yl)bicyclo[2.2.2]octan-1-yl)methyl)(2-(4-(2-hydroxypropan-2-yl)phenyl)pyrimidin-4-yl) carbamate] was 5.89; that for `COc1cnc(-c2cccc(N(CC34CCC(c5nc(C(C)(C)C)no5)(CC3)CC4)C(=O)C34CC(F)(C3)C4)c2)nc1` [Example 369, N-((4-(3-(tert-butyl)-1,2,4-oxadiazol-5-yl)bicyclo[2.2.2]octan-1-yl)methyl)-3-fluoro-N-(3-(5-methoxypyrimidin-2-yl)phenyl)bicyclo[1.1.1]pentane-1-carboxamide] was 7.17.
The same measure, in the same setting: under `Cn1nc(C2CC2)cc1C12CCC(CN(C(=O)C34CC(F)(C3)C4)c3cccc(-c4ccc(NS(C)(=O)=O)cc4)c3)(CC1)CC2` [Example 412, N-((4-(3-cyclopropyl-1-methyl-1H-pyrazol-5-yl)bicyclo[2.2.2]octan-1-yl)methyl)-3-fluoro-N-(4′-(methylsulfonamido)-[1,1′-biphenyl]-3-yl)bicyclo[1.1.1]pentane-1-carboxamide] stands 6.98; under `COc1ncc(-c2cccc(N(CC34CCC(c5ccc(C6(C#N)CC6)cc5)(CC3)OC4)C(=O)C34CC(F)(C3)C4)c2)cn1` [Example 351, N-((1-(4-(1-cyanocyclopropyl)phenyl)-2-oxabicyclo[2.2.2]octan-4-yl)methyl)-3-fluoro-N-(3-(2-methoxypyrimidin-5-yl)phenyl)bicyclo[1.1.1]pentane-1-carboxamide], 6.58; under `COCc1ccc(-c2cccc(N(CC34CCC(c5nc(C6CC6)no5)(CC3)CC4)C(=O)C34CC(F)(C3)C4)c2)cc1` [Example 273, N-((4-(3-cyclopropyl-1,2,4-oxadiazol-5-yl)bicyclo[2.2.2]octan-1-yl)methyl)-3-fluoro-N-(4′-(methoxymethyl)-[1,1′-biphenyl]-3-yl)bicyclo[1.1.1]pentane-1-carboxamide], 7.28.
On to `CC(C)c1noc(C23CCC(CN(C(=O)C45CC(F)(C4)C5)c4cccc(-c5ccc(NS(=O)(=O)C6CC6)cc5)c4)(CC2)CC3)n1` [Example 379, N-(4′-(cyclopropanesulfonamido)-[1,1′-biphenyl]-3-yl)-3-fluoro-N-((4-(3-isopropyl-1,2,4-oxadiazol-5-yl)bicyclo[2.2.2]octan-1-yl)methyl)bicyclo[1.1.1]pentane-1-carboxamide], for which the negative logarithm of the EC50 (pEC50) is 6.88.
In the case of `CCOc1ccc(-c2cccc(N(CC34CCC(c5noc(C(C)C)n5)(CC3)CC4)C(=O)C34CC(F)(C3)C4)c2)cn1` [Example 432, N-(3-(6-ethoxypyridin-3-yl)phenyl)-3-fluoro-N-((4-(5-isopropyl-1,2,4-oxadiazol-3-yl)bicyclo[2.2.2]octan-1-yl)methyl)bicyclo[1.1.1]pentane-1-carboxamide], the pEC50 is 7.29.
Same read-out and setting: under `O=C(N(CC12CCC(c3noc(C4(F)CC4)n3)(CC1)CC2)c1cccc(-c2cnc(C3CC3)nc2)c1)C12CC(F)(C1)C2` [Example 579, N-(3-(2-cyclopropylpyrimidin-5-yl)phenyl)-3-fluoro-N-((4-(5-(1-fluorocyclopropyl)-1,2,4-oxadiazol-3-yl)bicyclo[2.2.2]octan-1-yl)methyl)bicyclo[1.1.1]pentane-1-carboxamide] stands 7.35.
